Experiment: xn = mol fraction of the nth substance listed
Settings: Gas, Frequency=0.002 MHz, Spherical resonator

[He] [helium] + C
Settings	speed of sound [m/s]
273.16 K, 491.07 kPa, x2 = 0.8999	449.8
273.16 K, 495.33 kPa, x2 = 0.95	438.87
273.16 K, 993.4 kPa, x2 = 0.8999	448.5
273.16 K, 1010.2 kPa, x2 = 0.95	437.11
273.16 K, 1705.3 kPa, x2 = 0.8999	446.82
273.16 K, 2010.6 kPa, x2 = 0.95	433.9
273.16 K, 2484.9 kPa, x2 = 0.8999	445.25
273.16 K, 2988.8 kPa, x2 = 0.95	431.21
273.16 K, 3490.4 kPa, x2 = 0.8999	443.67
273.16 K, 4423.3 kPa, x2 = 0.95	428.28
273.16 K, 4498.4 kPa, x2 = 0.8999	442.69
273.16 K, 5505.7 kPa, x2 = 0.8999	442.38
273.16 K, 5984.1 kPa, x2 = 0.95	426.79
273.16 K, 6475.9 kPa, x2 = 0.95	426.75
273.16 K, 6493 kPa, x2 = 0.8999	442.8
273.16 K, 6972.4 kPa, x2 = 0.95	426.96
273.16 K, 7508.1 kPa, x2 = 0.8999	444.07
273.16 K, 7524.3 kPa, x2 = 0.95	427.48
273.16 K, 8481.6 kPa, x2 = 0.8999	446.2
273.16 K, 8589.5 kPa, x2 = 0.95	429.44
273.16 K, 9521.1 kPa, x2 = 0.8999	449.34
273.16 K, 9523.8 kPa, x2 = 0.95	432.26
273.16 K, 10522 kPa, x2 = 0.8999	453.42
273.16 K, 10523 kPa, x2 = 0.95	436.5
273.16 K, 11506 kPa, x2 = 0.95	441.94
273.16 K, 11530 kPa, x2 = 0.8999	458.54
273.16 K, 12532 kPa, x2 = 0.95	449.01
273.16 K, 12638 kPa, x2 = 0.8999	465.33
273.16 K, 13317 kPa, x2 = 0.95	455.32
273.16 K, 13633 kPa, x2 = 0.8999	472.45
273.16 K, 14040 kPa, x2 = 0.95	461.81
273.16 K, 14537 kPa, x2 = 0.8999	479.7
273.16 K, 14722 kPa, x2 = 0.95	468.48
273.16 K, 15299 kPa, x2 = 0.95	474.53
273.16 K, 15351 kPa, x2 = 0.8999	486.78
273.16 K, 15853 kPa, x2 = 0.95	480.65
273.16 K, 16041 kPa, x2 = 0.8999	493.25
273.16 K, 16516 kPa, x2 = 0.95	488.34
273.16 K, 16537 kPa, x2 = 0.8999	498.12
273.16 K, 17032 kPa, x2 = 0.95	494.58
273.16 K, 17048 kPa, x2 = 0.8999	503.31
273.16 K, 17533 kPa, x2 = 0.95	500.83
273.16 K, 17548 kPa, x2 = 0.8999	508.55
273.16 K, 18009 kPa, x2 = 0.95	506.92
273.16 K, 18059 kPa, x2 = 0.8999	514.05
273.16 K, 18537 kPa, x2 = 0.8999	519.32
273.16 K, 18552 kPa, x2 = 0.95	514.01
273.16 K, 19088 kPa, x2 = 0.95	521.16
273.16 K, 19117 kPa, x2 = 0.8999	525.88
273.16 K, 19871 kPa, x2 = 0.95	531.76
300 K, 482.33 kPa, x2 = 0.8999	469.85
300 K, 483.64 kPa, x2 = 0.95	458.75
300 K, 985.69 kPa, x2 = 0.95	457.69
300 K, 1001 kPa, x2 = 0.8999	469.18
300 K, 1985.5 kPa, x2 = 0.8999	468.06
300 K, 1996 kPa, x2 = 0.95	455.8
300 K, 2984.6 kPa, x2 = 0.8999	467.34
300 K, 3212.7 kPa, x2 = 0.95	454.1
300 K, 4475.2 kPa, x2 = 0.95	453.09
300 K, 4487.3 kPa, x2 = 0.8999	467.1
300 K, 5490.1 kPa, x2 = 0.8999	467.58
300 K, 5513.3 kPa, x2 = 0.95	452.95
300 K, 6460.8 kPa, x2 = 0.95	453.38
300 K, 6494.8 kPa, x2 = 0.8999	468.59
300 K, 7011.9 kPa, x2 = 0.95	453.9
300 K, 7501.4 kPa, x2 = 0.8999	470.2
300 K, 7543 kPa, x2 = 0.95	454.6
300 K, 8430.8 kPa, x2 = 0.95	456.23
300 K, 9026.4 kPa, x2 = 0.8999	473.76
300 K, 9344.2 kPa, x2 = 0.95	458.51
300 K, 10504 kPa, x2 = 0.8999	478.72
300 K, 10534 kPa, x2 = 0.95	462.72
300 K, 11500 kPa, x2 = 0.95	466.77
300 K, 11505 kPa, x2 = 0.8999	482.86
300 K, 12492 kPa, x2 = 0.8999	487.56
300 K, 12507 kPa, x2 = 0.95	471.79
300 K, 13305 kPa, x2 = 0.95	476.35
300 K, 13505 kPa, x2 = 0.8999	493.08
300 K, 13998 kPa, x2 = 0.95	480.72
300 K, 14495 kPa, x2 = 0.8999	499.05
300 K, 14699 kPa, x2 = 0.95	485.51
300 K, 15302 kPa, x2 = 0.95	489.92
300 K, 15515 kPa, x2 = 0.8999	505.8
300 K, 15902 kPa, x2 = 0.95	494.56
300 K, 16490 kPa, x2 = 0.8999	512.81
300 K, 16491 kPa, x2 = 0.95	499.36
300 K, 16994 kPa, x2 = 0.8999	516.63
300 K, 17005 kPa, x2 = 0.95	503.74
300 K, 17511 kPa, x2 = 0.8999	520.69
300 K, 17525 kPa, x2 = 0.95	508.33
300 K, 18012 kPa, x2 = 0.8999	524.75
300 K, 18013 kPa, x2 = 0.95	512.78
300 K, 18515 kPa, x2 = 0.95	517.49
300 K, 18523 kPa, x2 = 0.8999	529
300 K, 19011 kPa, x2 = 0.95	522.29
300 K, 19043 kPa, x2 = 0.8999	533.45
300 K, 19447 kPa, x2 = 0.95	526.6
300 K, 19955 kPa, x2 = 0.8999	541.5
325 K, 473.9 kPa, x2 = 0.8999	487
325 K, 479.57 kPa, x2 = 0.95	476.04
325 K, 976.85 kPa, x2 = 0.8999	486.84
325 K, 979.32 kPa, x2 = 0.95	475.45
325 K, 1477.5 kPa, x2 = 0.8999	486.66
325 K, 1677.4 kPa, x2 = 0.95	474.76
325 K, 2455.5 kPa, x2 = 0.95	474.19
325 K, 2481.6 kPa, x2 = 0.8999	486.49
325 K, 3481.4 kPa, x2 = 0.95	473.83
325 K, 3486.4 kPa, x2 = 0.8999	486.7
325 K, 4485.5 kPa, x2 = 0.8999	487.28
325 K, 4486.1 kPa, x2 = 0.95	473.85
325 K, 5487.2 kPa, x2 = 0.8999	488.28

— the NIST ThermoML archive (doi:10.1016/j.jct.2019.07.011)
